The values below come from patent EP0155454A1, “Use of pirenzepine, its salts or medicaments containing pirenzepine for the treatment of colon disorders” (Dr. Karl Thomae GmbH, priority 1984, dated 1985).

The subject of one assay is Darmmotilität. The conditions noted are these: cited from earlier work.
The test system of assay [1] is Dickdarmmotorik. The note with it: in vivo; cited from earlier work.
For the next assay, the system named is Colon irritabile. Briefly: Double-blind cross-over clinical study versus placebo in patients with Colon irritabile. Format: in vivo, Patienten. The note with it: for symptomfrei oder gebessert: 2 x 25 mg/Tag, 2 weeks per period, 30 Patienten. The text has this:
Bei klinischen Untersuchungen an 30 Patienten mit dem angegebenen Beschwerdebild Colon irritabile, wobei sich trotz umfangreicher diagnostischer Maßnahmen bei keinem der Patienten ein pathologischer Befund ergab, wurde Pirenzepin-dihydrochloridmonohydrat zum Einsatz gebracht. Da es für einen möglichen Therapieerfolg bei der geschilderten Indikation keinen objektivierbaren Parameter gibt, wurde jeder Patient in Doppelblind-cross over-Technik entweder mit Pirenzepin oder mit Placebo behandelt. Die Dosierung betrug 2 x 25 mg/Tag. Der Versuchsplan ermöglichte also bei jedem Patienten einen zweimal 2-wöchigen Beobachtungszeitraum. Die geprüften Parameter waren Obstipation, Diarrhoe, Schafkotstuhl, wechselnde Stühle und Schleimabsonderung. Die Beurteilung der therapeutischen Wirkung erfolgte vor Beginn der Behandlung und nach jedem einzelnen Versuchsabschnitt. Jeder Patient erhielt einen weitgefächerten Score, um seine subjektiven Eindrücke festzuhalten. Diese Angaben wurden ausgewertet, wobei die generalisierten Befunde bezüglich der Einzelsymptomatik in der nachstehenden Tabelle aufgeführt sind: […]

Assay [2] has as its system Dickdarmmotorik. Briefly: Neostigmine-stimulated colon motility in healthy volunteers, acute intravenous pirenzepine. Format: in vivo, freiwilligen Probanden. The text has this: Pirenzepin löst einen krankhaften Spasmus im Darmtrakt ohne den Darm zu lähmen. Um dieses zu beweisen, bzw. um zu überprüfen, ob Pirenzepin anders als Atropin die gestörten motorischen Verhältnisse zu beeinflussen in der Lage ist und sich damit von Anticholinergika, Atropin oder Atropinderivaten unterscheidet, wurde die Dickdarmmotorik bei freiwilligen Probanden mit Neostigmin stimuliert und im Akutversuch Pirenzepin intravenös in therapeutischen Dosen verabreicht. In einer zweiten Serie wurden die Druck- und Motorikverhältnisse bei Patienten mit Colon irritabile vor und nach einer oralen Therapie mit Pirenzepin geprüft. Die dabei erzielten Ergebnisse lassen sich wie folgt zusammenfassen: Im Vergleich zur basalen Untersuchungsperiode konnte unter Neostigminstimulation an gesunden Testpersonen eine signifikante Zunahme der Druckamplitude um 21 %, der Kontraktionsdauer um 76 % und ein Anstieg des Motilitätsindex um 82 % beobachtet werden.

Setting [3] is: intravenös, therapeutic doses, after Neostigmin stimulation.

Where a name gives a salt, the structure may show the parent alone. Read-outs that look alike come from different tables or passages of the source.

For `CN1C2CCC1CC(OC(=O)C(CO)c1ccccc1)C2` (racemic) [Atropin], the “Verminderung der Darmmotilität” value in the assay on Darmmotilität (in vivo) was “eine Verminderung der Darmmotilität bewirkt”. For the same compound, the “propulsive motorische Kontraktionen” value in the assay on Dickdarmmotorik [1] was “zum Erliegen bringt”.

Turning to `CN1CCN(CC(=O)N2c3ccccc3C(=O)Nc3cccnc32)CC1` [Gastrozepin, 5,11-Dihydro-11 [(4-methyl-piperazin-1-yl)acetyl]-6H-pyrido [2,3-b] [1,4] benzodiazpin-6-on-dihydrochloridmonohydrat], the symptomfrei oder gebessert in the assay on Colon irritabile (Symptom Diarrhoe) came out at 84%; in the assay on Colon irritabile (Symptom Obstipation), 72%; in the assay with Colon irritabile (Symptom Schafkotstuhl) it was 80%; in the assay on Colon irritabile (Symptom Schleimabsonderung) it was 83%; in the assay with Colon irritabile (Symptom Wechselnde Stühle), 89%.

In the case of `CN(C)C(=O)Oc1cccc([N+](C)(C)C)c1` [Neostigmin], in the assay with Dickdarmmotorik [2] (in vivo), the “Anstieg des Motilitätsindex” value was determined as 82%, the “Zunahme der Druckamplitude” value is listed as 21% and the “Zunahme der Kontraktionsdauer” value amounted to 76%.

As for `CN1CCN(CC(=O)N2c3ccccc3C(=O)Nc3cccnc32)CC1` [Pirenzepin, 5,11-Dihydro-11-[(4-methyl-piperazin-1-yl)-acetyl)-6H-pyrido [2,3-b] [1,4] benzodiazepin-6-on], in the assay with Colon irritabile (all tested parameters), the “Unterschiede zwischen der Placebogruppe und der Verumgruppe” value is given as “signifikante bis hochsignifikante Unterschieden zugunsten von Pirenzepin”. Also, in the assay on Colon irritabile (overall assessment), the “Wirksamkeit in der Indikation Colon irritabile” value is reported as “sehr gut wirksam”. The “Verminderung der Darmmotilität” value with Darmmotilität (therapeutische Höchstdosen) is “nicht sichtbar”. Moreover, in the assay with Dickdarmmotorik [2] (setting [3]), the “Abnahme der Druckamplitude” value is listed as “bis zum Ausgangsniveau”, the “Abnahme der Kontraktionsdauer” value is “bis zum Ausgangsniveau”, the “Abnahme der propulsiven Kontraktionen” value was “nicht zu registrieren” and the “Abnahme des Motilitätsindex” value is “bis zum Ausgangsniveau”. In addition, in the assay with Dickdarmmotorik [2] (summary statement), the “Neostigmin-induzierte segmentale Kolonkontraktionen” value is “vermindert”.
